Experimental data as given in patent US20210254056A1, “IDENTIFICATION AND TARGETED MODULATION OF GENE SIGNALING NETWORKS” (CAMP4 THERAPEUTICS CORPORATION, priority 2017, published 2021).
Where a name gives a salt, the structure may show the parent alone.

System: hepatocytes
Assay: RNA-seq of hepatocytes treated with Phase III failure compounds
Conditions: for Number (#) of genes having significantly changed expression: Phase III failure compounds, significance: FPKM≥0.5, log 2(fold-change)≥1, q-value≥0.05 (so in the source); for significant modulation of expression of any of the genes analyzed: p≤0.05; for significant changes in gene expression: RNA-seq of Table 36, FPKM≥0.5, log 2(fold-change)≥1, q-value≤0.05; for significant modulation of expression of disease genes: q≤0.05, genes in the value or listed in the block
Protocol: RNA-seq was performed to determine the effects of the compounds on hepatocytes.
Significance was determined by the criteria of FPKM≥0.5, a log 2(fold-change)≥1, and a […].

Cc1ccc2c(c1)c1c(n2CCc2ccc(C)nc2)CCN(C)C1 [Latrepirdine (dihydrochloride) (57), Latrepirdine]
Number (#) of genes having significantly changed expression (RNA-seq, hepatocytes): 12 | significant modulation of expression of any of the genes analyzed (RNA-seq, hepatocytes): not observed to significantly modulate expression | effect on disease gene expression (RNA-seq, hepatocytes): no effect on any disease gene

Cc1ccc2c(c1)c1c(n2CCc2ccc(C)nc2)CCN(C)C1 [Latrepirdine (dihydrochloride) (64), Latrepirdine]
significant changes in gene expression: not observed to cause any significant changes in gene expression

C1=C/COCc2cc(ccc2OCCN2CCCC2)Nc2nccc(n2)-c2cccc(c2)COC/1 [Pacritinib (SB1518), Pacritinib]
significant modulation of expression of disease genes (RNA-seq, hepatocytes): significantly (q≤0.05) modulate expression

C1=C/COCc2cc(ccc2OCCN2CCCC2)Nc2nccc(n2)-c2cccc(c2)COC/1 [Pacritinib]
Number (#) of genes having significantly changed expression (RNA-seq, hepatocytes): 4114

O=P(O)(NCCCl)NCCCl [Palifosfamide]
significant modulation of expression of disease genes (RNA-seq, hepatocytes): significantly (q≤0.05) modulate expression of RMRP and FAM111B | RNA-seq results: A1BG expression (gene A1BG, hepatocytes): −0.13 | RNA-seq results: AGTR1 expression (gene AGTR1, hepatocytes): −0.67 | RNA-seq results: AGXT expression (gene AGXT, hepatocytes): 0.30 | RNA-seq results: AHI1 expression (gene AHI1, hepatocytes): 0.06 | RNA-seq results: AMPD3 expression (gene AMPD3, hepatocytes): −0.01 | RNA-seq results: AMT expression (gene AMT, hepatocytes): 0.13 | RNA-seq results: ANGPTL3 expression (gene ANGPTL3, hepatocytes): −0.28 | RNA-seq results: ANKS4B expression (gene ANKS4B, hepatocytes): −0.16 | RNA-seq results: ANKS6 expression (gene ANKS6, hepatocytes): 0.12 | RNA-seq results: ANPEP expression (gene ANPEP, hepatocytes): −0.12 | RNA-seq results: AOC2 expression (gene AOC2, hepatocytes): 0.34 | RNA-seq results: APOA2 expression (gene APOA2, hepatocytes): −0.53 | RNA-seq results: APOA5 expression (gene APOA5, hepatocytes): 0.00 | RNA-seq results: APOB expression (gene APOB, hepatocytes): −0.23 | RNA-seq results: COG5 expression (gene COG5, hepatocytes): −0.03 | RNA-seq results: COG6 expression (gene COG6, hepatocytes): 0.08 | RNA-seq results: COL1A1 expression (gene COL1A1, hepatocytes): 0.48 | RNA-seq results: COX6A1 expression (gene COX6A1, hepatocytes): −0.07 | RNA-seq results: CP expression (gene CP, hepatocytes): 0.16 | RNA-seq results: CPS1 expression (gene CPS1, hepatocytes): 0.84 | RNA-seq results: CPT1A expression (gene CPT1A, hepatocytes): 1.06 | RNA-seq results: CPT2 expression (gene CPT2, hepatocytes): 0.33 | RNA-seq results: CROT expression (gene CROT, hepatocytes): −0.69 | RNA-seq results: CSPP1 expression (gene CSPP1, hepatocytes): 0.17 | RNA-seq results: CTC1 expression (gene CTC1, hepatocytes): 0.2 | RNA-seq results: CTDSP2 expression (gene CTDSP2, hepatocytes): 0.56 | RNA-seq results: CTH expression (gene CTH, hepatocytes): 1.87 | RNA-seq results: CTNS expression (gene CTNS, hepatocytes): 0.42 | RNA-seq results: CTSF expression (gene CTSF, hepatocytes): 0.68 | RNA-seq results: CTSK expression (gene CTSK, hepatocytes): −0.49 | RNA-seq results: CYB5A expression (gene CYB5A, hepatocytes): 0.43 | RNA-seq results: CYB5R3 expression (gene CYB5R3, hepatocytes): 0.05 | RNA-seq results, CYP2B6 expression (gene CYP2B6, hepatocytes): 0.03 | RNA-seq results: CYP2B6 expression (gene CYP2B6, hepatocytes): 0.58 | RNA-seq results, CYP2C19 expression (gene CYP2C19, hepatocytes): 0.12 | RNA-seq results: CYP2C19 expression (gene CYP2C19, hepatocytes): 0.2 | RNA-seq results, CYP2D6 expression (gene CYP2D6, hepatocytes): 0.10 | RNA-seq results: CYP2D6 expression (gene CYP2D6, hepatocytes): 0.47 | RNA-seq results, CYP3A4 expression (gene CYP3A4, hepatocytes): −0.49 | RNA-seq results: CYP3A4 expression (gene CYP3A4, hepatocytes): 2.11 | RNA-seq results, CYP7B1 expression (gene CYP7B1, hepatocytes): −0.21 | RNA-seq results: CYP7B1 expression (gene CYP7B1, hepatocytes): 0.28 | RNA-seq results: CYP27A1 expression (gene CYP27A1, hepatocytes): 0.51 | RNA-seq results, CYP39A1 expression (gene CYP39A1, hepatocytes): −0.43 | RNA-seq results: CYP39A1 expression (gene CYP39A1, hepatocytes): 0.62 | RNA-seq results: DAO expression (gene DAO, hepatocytes): −1.2 | RNA-seq results: DBT expression (gene DBT, hepatocytes): −0.43 | RNA-seq results: DCDC2 expression (gene DCDC2, hepatocytes): −2.5 | RNA-seq results: DCXR expression (gene DCXR, hepatocytes): −0.23 | RNA-seq results: FABP1 expression (gene FABP1, hepatocytes): −0.17 | RNA-seq results: FADD expression (gene FADD, hepatocytes): −0.29 | RNA-seq results: FAM111A expression (gene FAM111A, hepatocytes): −0.05 | RNA-seq results: FAM111B expression (gene FAM111B, hepatocytes): −2.02 | RNA-seq results: FAN1 expression (gene FAN1, hepatocytes): −0.36 | RNA-seq results: FARS2 expression (gene FARS2, hepatocytes): −0.34 | RNA-seq results: FASLG expression (gene FASLG, hepatocytes): −1.44 | RNA-seq results: FGA expression (gene FGA, hepatocytes): 0.12 | RNA-seq results: FGD1 expression (gene FGD1, hepatocytes): −0.27 | RNA-seq results: FGFR2 expression (gene FGFR2, hepatocytes): −0.22 | RNA-seq results: FIG4 expression (gene FIG4, hepatocytes): 0.06 | RNA-seq results: FIS1 expression (gene FIS1, hepatocytes): −0.18 | RNA-seq results: FTCD expression (gene FTCD, hepatocytes): 0.32 | RNA-seq results: FTH1 expression (gene FTH1, hepatocytes): 0.48 | RNA-seq results: FUCA1 expression (gene FUCA1, hepatocytes): 0.24 | RNA-seq results: FXN expression (gene FXN, hepatocytes): −0.02 | RNA-seq results: G6PC3 expression (gene G6PC3, hepatocytes): −0.25 | RNA-seq results: G6PC expression (gene G6PC, hepatocytes): 3.27 | RNA-seq results: G6PD expression (gene G6PD, hepatocytes): 0.13 | RNA-seq results: GALK1 expression (gene GALK1, hepatocytes): −0.37 | RNA-seq results: GALK2 expression (gene GALK2, hepatocytes): −0.25 | RNA-seq results: GALT expression (gene GALT, hepatocytes): 0.41 | RNA-seq results: GATA6 expression (gene GATA6, hepatocytes): 0.11 | RNA-seq results: GATM expression (gene GATM, hepatocytes): −0.46 | RNA-seq results: GBA expression (gene GBA, hepatocytes): −0.11 | RNA-seq results: GBE1 expression (gene GBE1, hepatocytes): 0.2 | RNA-seq results: GCH1 expression (gene GCH1, hepatocytes): −0.38 | RNA-seq results: GCKR expression (gene GCKR, hepatocytes): −0.08 | RNA-seq results: GCLC expression (gene GCLC, hepatocytes): 0.14 | RNA-seq results: GOSH expression (gene GOSH, hepatocytes): −0.4 | RNA-seq results: RRM2B (gene RRM2B, hepatocytes): −0.21 | RNA-seq results: RSAD1 (gene RSAD1, hepatocytes): 0.12 | RNA-seq results: SAMHD1 (gene SAMHD1, hepatocytes): −0.34 | RNA-seq results: SC5D (gene SC5D, hepatocytes): −0.37 | RNA-seq results: SCARB1 (gene SCARB1, hepatocytes): 0.05 | RNA-seq results: SCN9A (gene SCN9A, hepatocytes): −0.07 | RNA-seq results: SDCCAG8 (gene SDCCAG8, hepatocytes): −0.12 | RNA-seq results: SEPN1 (gene SEPN1, hepatocytes): 0.00 | RNA-seq results: SERAC1 (gene SERAC1, hepatocytes): −0.07 | RNA-seq results: SERPINA1 (gene SERPINA1, hepatocytes): −0.19 | RNA-seq results: SERPING1 (gene SERPING1, hepatocytes): −0.31 | RNA-seq results: SERPINI1 (gene SERPINI1, hepatocytes): −0.28 | RNA-seq results: SETBP1 (gene SETBP1, hepatocytes): 0.11 | RNA-seq results: SFXN4 (gene SFXN4, hepatocytes): −0.14 | RNA-seq results: SLC10A1 (gene SLC10A1, hepatocytes): −0.40 | RNA-seq results: SLC10A3 (gene SLC10A3, hepatocytes): 0.53 | RNA-seq results: SLC10A5 (gene SLC10A5, hepatocytes): −0.06 | RNA-seq results: SLC10A7 (gene SLC10A7, hepatocytes): −0.46 | RNA-seq results: SLC11A2 (gene SLC11A2, hepatocytes): −0.01 | RNA-seq results: SLC19A1 (gene SLC19A1, hepatocytes): −0.10 | RNA-seq results: SLC19A2 (gene SLC19A2, hepatocytes): −0.05 | RNA-seq results: SLC19A3 (gene SLC19A3, hepatocytes): −0.26 | RNA-seq results: SLC22A1 (gene SLC22A1, hepatocytes): −0.18 | RNA-seq results: SLC22A5 (gene SLC22A5, hepatocytes): 0.03 | RNA-seq results: SLC25A1 (gene SLC25A1, hepatocytes): 0.36 | RNA-seq results: SLC25A10 (gene SLC25A10, hepatocytes): 0.09 | RNA-seq results: SLC25A12 (gene SLC25A12, hepatocytes): 0.10 | RNA-seq results: SLC25A13 (gene SLC25A13, hepatocytes): −0.06 | RNA-seq results: SLC25A15 (gene SLC25A15, hepatocytes): 0.04 | RNA-seq results: SLC25A19 (gene SLC25A19, hepatocytes): −0.02 | RNA-seq results: SLC25A20 (gene SLC25A20, hepatocytes): −0.21 | RNA-seq results: SLC25A29 (gene SLC25A29, hepatocytes): 0.39 | RNA-seq results: SLC25A32 (gene SLC25A32, hepatocytes): −0.19

CCC(CC)[C@H](NC(C)=O)[C@@H]1[C@H](O)[C@@H](C(=O)O)C[C@H]1N=C(N)N [Peramivir]
Number (#) of genes having significantly changed expression (RNA-seq, hepatocytes): 23

CCCCCCCCCCCCCCCCCCOP(=O)([O-])OC1CC[N+](C)(C)CC1 [Perifosine (KRX-0401), Perifosine]
significant modulation of expression of any of the genes analyzed (RNA-seq, hepatocytes): not observed to significantly modulate expression

CSCC[C@H](N)C(=O)N[C@@]1(C(=O)O)CS(=O)(=O)[C@H]2[C@H](C(=O)O)[C@H]21 [Pomaglumetad methionil]
significant changes in gene expression: not observed to cause any significant changes in gene expression | significant modulation of expression of any of the genes analyzed (RNA-seq, hepatocytes): not observed to significantly modulate expression
